Results published in patent publication US9091692B2, “Fluorescent dye” (SHINICHIRO ISOBE, priority 2011, dated 2015).

Assay: Direct solubility of the fluorescent dye in water
Type: physicochemical
Conditions: not given
Excerpt: The fluorescent dyes obtained in Synthetic Examples 1 to 21 were each directly soluble in water. […] A stokes shift of 100 nm or more was obtained in all the synthesized fluorescent dyes. An absorption wavelength of 400 to 450 nm was obtained in the 4,7-diphenyl whereas an absorption wavelength of 500 nm or more and a fluorescence wavelength of 600 nm or more were obtained in the 4,7-thienyl. When the fluorescence intensity of Synthetic Example 22 was 1.0, a very high fluorescence intensity as much as 11.2 was obtained in Synthetic Example 1 and a very high fluorescence intensity as much as 6.0 was obtained in Synthetic Example 12.
For “active ester of 4,7-diphenyl-1,2,5-oxadiazolopyridine ethyl ester [Synthetic Example 22, reference compound]”, the “Direct solubility in water” value was “could not be directly dissolved in water”.

Assay: Measurement of a fluorescence spectrum (absorption and fluorescent wavelength, fluorescence intensity)
Type: physicochemical
Conditions: dissolved in DMSO, concentration 10^-4 M
Procedure: Measurement of a Fluorescence Spectrum
Each of the synthesized fluorescent dyes was dissolved in a solvent by using DMSO to prepare a solution having a concentration of 10^−4 M, so that the measurements of fluorescent wavelength and absorption wavelength were performed.
For O=C(CCCCC[n+]1cccc(/C=C/c2nc(-c3ccccc3)c3nsnc3c2-c2ccccc2)c1)ON1C(=O)CCC1=O [Synthetic Example 1], the Absorption wavelength was 411 nm, the Fluorescence wavelength was 531 nm and the Stokes shift was 120 nm. COc1ccc(-c2nc(/C=C/c3ccc[n+](CCCCCC(=O)ON4C(=O)CCC4=O)c3)c(-c3ccc(OC)cc3)c3nonc23)cc1 [Synthetic Example 2] showed an Absorption wavelength of 437 nm, a Fluorescence wavelength of 608 nm and a Stokes shift of 171 nm. Cc1csc(-c2c(-c3ccc[n+](CCC(=O)ON4C(=O)CCC4=O)c3)nc(-c3ccc(C)s3)c3nonc23)c1 [Synthetic Example 10] showed an Absorption wavelength of 531 nm, a Fluorescence wavelength of 650 nm and a Stokes shift of 119 nm. With Cc1csc(-c2c(-c3cc[n+](CCCCCC(=O)ON4C(=O)CCC4=O)cc3)nc(-c3ccc(C)s3)c3nonc23)c1 [Synthetic Example 11, active ester of 4,7-di(methylthienyl)-1,2,5-oxadiazolopyridine-6-(4-pyridinium)] the Absorption wavelength was 528 nm, the Fluorescence wavelength was 648 nm and the Stokes shift was 120 nm. With O=C(CCCCC[n+]1cccc(-c2nc(-c3ccccc3)c3nonc3c2-c2ccccc2)c1)ON1C(=O)CCC1=O [Synthetic Example 12] the Absorption wavelength was 382 nm, the Fluorescence wavelength was 513 nm and the Stokes shift was 131 nm. For O=C(CCCCC[n+]1ccc(-c2nc(-c3ccc(-c4ccc5ccccc5c4)s3)c3nonc3c2-c2cc(-c3ccc4ccccc4c3)cs2)cc1)ON1C(=O)CCC1=O [Synthetic Example 16, active ester of 4,7-di[(2-naphthyl)thienyl]-1,2,5-oxadiazolopyridine-6-(4-pyridinium)], the Absorption wavelength was 516 nm, the Fluorescence wavelength was 682 nm and the Stokes shift was 166 nm. With O=C(CCCCC[n+]1ccc(/C=C/c2nc(-c3ccc(-c4cccc5ccccc45)s3)c3nonc3c2-c2ccc(-c3cccc4ccccc34)s2)cc1)ON1C(=O)CCC1=O [Synthetic Example 18, active ester of 4,7-di[(1-naphthyl)thienyl]-1,2,5-oxadiazolopyridine-6-(4-vinylpyridinium)] the Absorption wavelength was 535 nm, the Fluorescence wavelength was 700 nm and the Stokes shift was 165 nm. In the case of O=C(CCCCC[n+]1ccc(-c2nc(-c3ccc(-c4ccc(-c5ccccc5)cc4)s3)c3nonc3c2-c2cc(-c3ccc(-c4ccccc4)cc3)cs2)cc1)ON1C(=O)CCC1=O.[Br-] [Synthetic Example 20, active ester of 4,7-di[(2-biphenyl)thienyl]-1,2,5-oxadiazolopyridine-6-(4-pyridinium)], the Absorption wavelength is reported as 529 nm, the Fluorescence wavelength is reported as 715 nm and the Stokes shift is reported as 186 nm. With “active ester of 4,7-di(bromothienyl)-1,2,5-oxadiazolopyridine-6-(4-pyridine) [Synthetic Example 13]” the Absorption wavelength was 516 nm, the Fluorescence wavelength was 698 nm and the Stokes shift was 182 nm. Work on “active ester of 4,7-di(methylthienyl)-1,2,5-oxadiazolopyridine-6-(3-pyridinium) [Synthetic Example 9]” yielded an Absorption wavelength of 539 nm, a Fluorescence wavelength of 660 nm and a Stokes shift of 121 nm. “active ester of 4,7-di[(1-naphthyl)thienyl]-1,2,5-oxadiazolopyridine-6-(4-pyridinium) [Synthetic Example 15]” showed an Absorption wavelength of 532 nm, a Fluorescence wavelength of 722 nm and a Stokes shift of 190 nm. Work on “active ester of 4,7-di[(2-biphenyl)thienyl]-1,2,5-oxadiazolopyridine-6-(4-vinylpyridinium) [Synthetic Example 21]” yielded an Absorption wavelength of 404 nm, a Fluorescence wavelength of 527 nm and a Stokes shift of 123 nm. “active ester of 4,7-di[(2-bromo)thienyl]-1,2,5-oxadiazolopyridine-6-(4-vinylpyridinium) [Synthetic Example 17]” showed an Absorption wavelength of 509 nm, a Fluorescence wavelength of 688 nm and a Stokes shift of 179 nm. “active ester of 4,7-di[(2-naphthyl)thienyl]-1,2,5-oxadiazolopyridine-6-(4-vinylpyridinium) [Synthetic Example 19]” gave an Absorption wavelength of 533 nm, a Fluorescence wavelength of 730 nm and a Stokes shift of 197 nm. With “active ester of 4,7-di[(2-phenyl)thienyl]-1,2,5-oxadiazolopyridine-6-(4-pyridinium) [Synthetic Example 14]” the Absorption wavelength was 500 nm, the Fluorescence wavelength was 710 nm and the Stokes shift was 210 nm.

Same assay, conditions: fluorescence intensity of Synthetic Example 22 was 1.0
In the case of O=C(CCCCC[n+]1cccc(/C=C/c2nc(-c3ccccc3)c3nsnc3c2-c2ccccc2)c1)ON1C(=O)CCC1=O [Synthetic Example 1], the “Fluorescence intensity relative to Synthetic Example 22” value is reported as 11.2. For O=C(CCCCC[n+]1cccc(-c2nc(-c3ccccc3)c3nonc3c2-c2ccccc2)c1)ON1C(=O)CCC1=O [Synthetic Example 12], the “Fluorescence intensity relative to Synthetic Example 22” value was 6.0. In the case of “active ester of 4,7-diphenyl-1,2,5-oxadiazolopyridine ethyl ester [Synthetic Example 22, reference compound]”, the “Fluorescence intensity relative to Synthetic Example 22” value is reported as 1.0.
